Experimental data published in patent US20230063462A1, “SULFONIMIDAMIDE COMPOUNDS AND COMPOSITIONS FOR TREATING CONDITIONS ASSOCIATED WITH NLRP ACTIVITY” (NOVARTIS AG, priority 2019, published 2023).
Read-outs that look alike come from different tables or passages of the source. Each block holds one compound with its values, some of them ahead of it.

Tested on: THP-1 cells
Assay: hTHP-1 assay: gramicidin-stimulated IL-1β detection in PMA-treated THP-1 cells
Type: cell-based, human
Experimental: The following protocol is suitable for testing the activity of the compounds disclosed herein.
1. Experimental procedure • 1.1 Cell Culture • 1) Culture THP-1 cells in the complete RPMI-1640 medium with 10% FBS at 37° C., 5% CO2. • 2) Passage the cells every 3 days by inoculating 3×10^5 cells per ml. • 1.2 Compound Preparation • Prepare the 3-fold serial dilution of the compounds with DMSO in a 384-well LDV Microplate using TECAN EVO system to generate the compound source plate with 10 concentrations. […] HC: 100 μM CRID3 (MCC950)+5 μM gramicidin LC: 5 μM Gramicidin. • 1.5 IL-1β Detection • 1) Homogenize the 5× diluent #5 with a vortex and add 1 volume of stock solution in 4 volumes of distilled water. • 2) Thaw 20× stock solution of anti-IL1β-Cryptate-antibody and anti-IL1β XL-antibody. Dilute these two antibodies to 1× with detection buffer #3. • 3) Pre-mix the two ready-to-use antibody solutions just prior to use. • 4) Dispense 4 ul of pre-mixed Anti-IL1β antibodies working solution into all wells. • 5) Seal the plate and incubate overnight at 4° C. • 6) Read the cell plate using EnVison and plot Readout vs. the test compound concentration to calculate the IC50.
2. Data Analysis: • 1. IC50 of compounds can be calculated using the following formulas • Formula for IC50
% inhibition=100−100×[HCave-Readout/(HCave−LCave)] • 2. Fit the normalized data in a dose-response manner using XLfit, and calculate the compound concentration.

[1] = Table B1, 2% fetal bovine serum, class symbol, read-out: hTHP-1 IC50
[2] = Table B1, 2% fetal bovine serum, numeric value, read-out: hTHP-1 IC50
[3] = Homo sapiens, THP-1, Table B1, 2% fetal bovine serum, class symbol, read-out: hTHP-1 IC50
[4] = Homo sapiens, THP-1, Table B1, 2% fetal bovine serum, numeric value, read-out: hTHP-1 IC50

IC50 [1]: 0.04 to 0.2 µM
IC50 [2]: 0.0597 µM
SMILES: CC(C)(O)c1ncc(S(=O)(=NC(=O)Nc2c3c(nc4c2CCC4(C)C)CCC3)NC#N)s1 (single isomer, unassigned) [Example 4, (S) or (R)-N-cyano-N′-((3,3-dimethyl-1,2,3,5,6,7-hexahydrodicyclopenta[b,e]pyridin-8-yl)carbamoyl)-2-(2-hydroxypropan-2-yl)thiazole-5-sulfonimidamide]

IC50 [1]: 0.2 to 1 µM
IC50 [2]: 0.236 µM
SMILES: CC(C)(O)c1ncc(S(=O)(=NC(=O)Nc2c3c(nc4c2CCC4(C)C)CCC3)NC#N)s1 (single isomer, unassigned) [Example 5, (R) or (S)-N-cyano-N′-((3,3-dimethyl-1,2,3,5,6,7-hexahydrodicyclopenta[b,e]pyridin-8-yl)carbamoyl)-2-(2-hydroxypropan-2-yl)thiazole-5-sulfonimidamide]

IC50 [1]: < 0.008 µM
IC50 [2]: 0.0068 µM
SMILES: CC(C)(O)c1csc(S(=O)(=NC(=O)Nc2c3c(cc4c2CC4)CCC3)NC#N)c1 (single isomer, unassigned) [Example 7, (S) or (R)-N-cyano-4-(2-hydroxypropan-2-yl)-N′-((2,4,5,6-tetrahydro-1H-cyclobuta[f]inden-3-yl)carbamoyl)thiophene-2-sulfonimidamide]

IC50 [3]: 0.04 to 0.2 µM
IC50 [4]: 0.112 µM
SMILES: CC(C)(O)c1nc(CO)c(S(=O)(=NC(=O)Nc2c3c(nc4c2CCC4(C)C)CCC3)NC#N)s1 (single isomer, unassigned) [Example 13, (R) or (S)-N-cyano-N′-((3,3-dimethyl-1,2,3,5,6,7-hexahydrodicyclopenta[b,e]pyridin-8-yl)carbamoyl)-4-(hydroxymethyl)-2-(2-hydroxypropan-2-yl)thiazole-5-sulfonimidamide]

IC50 [1]: 0.2 to 1 µM
IC50 [2]: 0.204 µM
SMILES: CC1CCc2c1nc1c(c2NC(=O)N=S(=O)(NC#N)c2cc(C(C)(C)O)cs2)CCC1 (single isomer, unassigned) [Example 16, (R,R) or (R,S)-N-cyano-4-(2-hydroxypropan-2-yl)-N′-(((S)-3-methyl-1,2,3,5,6,7-hexahydrodicyclopenta[b,e]pyridin-8-yl)carbamoyl)thiophene-2-sulfonimidamide]

IC50 [1]: 1 to 5 µM
IC50 [2]: 1.24 µM
SMILES: CC1CCc2c1nc1c(c2NC(=O)N=S(=O)(NC#N)c2cc(C(C)(C)O)cs2)CCC1 (single isomer, unassigned) [Example 17, (R,S) or (R,R)-N-cyano-4-(2-hydroxypropan-2-yl)-N′-(((R)-3-methyl-1,2,3,5,6,7-hexahydrodicyclopenta[b,e]pyridin-8-yl)carbamoyl)thiophene-2-sulfonimidamide]

IC50 [1]: 0.04 to 0.2 µM
IC50 [2]: 0.0803 µM
SMILES: CC1CCc2c1nc1c(c2NC(=O)N=S(=O)(NC#N)c2cc(C(C)(C)O)cs2)CCC1 (single isomer, unassigned) [Example 18, (S,S) or (S,R)-N-cyano-4-(2-hydroxypropan-2-yl)-N′-(((S)-3-methyl-1,2,3,5,6,7-hexahydrodicyclopenta[b,e]pyridin-8-yl)carbamoyl)thiophene-2-sulfonimidamide]

IC50 [1]: 0.2 to 1 µM
IC50 [2]: 0.705 µM
SMILES: CC1CCc2c1nc1c(c2NC(=O)N=S(=O)(NC#N)c2cc(C(C)(C)O)cs2)CCC1 (single isomer, unassigned) [Example 19, (S,R) or (S,S)-N-cyano-4-(2-hydroxypropan-2-yl)-N′-(((R)-3-methyl-1,2,3,5,6,7-hexahydrodicyclopenta[b,e]pyridin-8-yl)carbamoyl)thiophene-2-sulfonimidamide]

Further lines, the compound ahead of its results:

SMILES: NS(=O)(=NC(=O)Nc1c2c(nc(C(F)(F)F)c1C1CC1)CCC2)c1ccn(C2CC2)n1 (racemic) [Example 899, (S) or (RS)-1-cyclopropyl-N′-((3-cyclopropyl-2-(trifluoromethyl)-6,7-dihydro-5H-cyclopenta [b]pyridin-4-yl)carbamoyl)-1H-pyrazole-3-sulfonimidamide]
IC50 (Homo sapiens, THP-1, Table B2, 10% FBS, class symbol, read-out: hTHP-1 IC50 in 10% FBS): 5 to 30 µM
IC50 (Homo sapiens, THP-1, Table B2, 10% FBS, numeric value, read-out: hTHP-1 IC50 in 10% FBS): 9.96 µM

SMILES: CC(C)(O)c1csc(S(=O)(=NC(=O)Nc2c3c(cc4c2CCC4)CCC3)NC#N)c1 (single isomer, unassigned) [Example 1, (S) or (R)-N-cyano-N′-(1,2,3,5,6,7-hexahydro-s-indacen-4-ylcarbamoyl)-4-(2-hydroxypropan-2-yl)thiophene-2-sulfonimidamide]
IC50 [1]: 0.04 to 0.2 µM
IC50 [2]: 0.0535 µM

SMILES: CC(C)(O)c1csc(S(=O)(=NC(=O)Nc2c3c(cc4c2CCC4)CCC3)NC#N)c1 (single isomer, unassigned) [Example 2, (R) or (S)-N-cyano-N′-((1,2,3,5,6,7-hexahydro-s-indacen-4-yl)carbamoyl)-4-(2-hydroxypropan-2-yl)thiophene-2-sulfonimidamide]
IC50 [1]: 0.008 to 0.04 µM
IC50 [2]: 0.0146 µM

SMILES: CC(C)(O)c1csc(S(=O)(=NC(=O)Nc2c3c(cc4c2CC4)CCC3)NC#N)c1 (single isomer, unassigned) [Example 6, (R) or (S)-N-cyano-4-(2-hydroxypropan-2-yl)-N′-((2,4,5,6-tetrahydro-1H-cyclobuta[f]inden-3-yl)carbamoyl)thiophene-2-sulfonimidamide]
IC50 [1]: 0.04 to 0.2 µM
IC50 [2]: 0.0717 µM

SMILES: CC(C)(O)c1ccc(CS(=O)(=NC(=O)Nc2c3c(cc4c2CCC4)CCC3)NC#N)cc1 (single isomer, unassigned) [Example 8, (S) or (R)-N-cyano-N′-((1,2,3,5,6,7-hexahydro-s-indacen-4-yl)carbamoyl)-1-(4-(2-hydroxypropan-2-yl)phenyl)methanesulfonimidamide]
IC50 [3]: 0.04 to 0.2 µM
IC50 [2]: 0.0422 µM

SMILES: CC(C)(O)c1ccc(CS(=O)(=NC(=O)Nc2c3c(cc4c2CCC4)CCC3)NC#N)cc1 (single isomer, unassigned) [Example 9, (R) or (S)-N-cyano-N′-((1,2,3,5,6,7-hexahydro-s-indacen-4-yl)carbamoyl)-1-(4-(2-hydroxypropan-2-yl)phenyl)methanesulfonimidamide]
IC50 [1]: 0.04 to 0.2 µM
IC50 [2]: 0.104 µM

SMILES: Cc1oc(S(=O)(=NC(=O)Nc2c(C(C)C)cc(F)cc2C(C)C)NC#N)cc1C(C)(C)O (single isomer, unassigned) [Example 10, (S) or (R)-N-cyano-N′-((4-fluoro-2,6-diisopropylphenyl)carbamoyl)-4-(2-hydroxypropan-2-yl)-5-methylfuran-2-sulfonimidamide]
IC50 [1]: 1 to 5 µM
IC50 [2]: 2.44 µM

SMILES: Cc1oc(S(=O)(=NC(=O)Nc2c(C(C)C)cc(F)cc2C(C)C)NC#N)cc1C(C)(C)O (single isomer, unassigned) [Example 11, (R) or (S)-N-cyano-N′-((4-fluoro-2,6-diisopropylphenyl)carbamoyl)-4-(2-hydroxypropan-2-yl)-5-methylfuran-2-sulfonimidamide]
IC50 [1]: 0.04 to 0.2 µM
IC50 [2]: 0.0906 µM

SMILES: CN(C)Cc1ccc(S(=O)(=NC(=O)Nc2c3c(cc4c2CCC4)CCC3)NC#N)c(F)c1 (single isomer, unassigned) [Example 14, (S) or (R)-N-cyano-4-((dimethylamino)methyl)-2-fluoro-N′-((1,2,3,5,6,7-hexahydro-s-indacen-4-yl)carbamoyl)benzenesulfonimidamide]
IC50 [1]: 0.04 to 0.2 µM
IC50 [2]: 0.973 µM

SMILES: CN(C)Cc1ccc(S(=O)(=NC(=O)Nc2c3c(cc4c2CCC4)CCC3)NC#N)c(F)c1 (single isomer, unassigned) [Example 15, (R) or (S)-N-cyano-4-((dimethylamino)methyl)-2-fluoro-N′-((1,2,3,5,6,7-hexahydro-s-indacen-4-yl)carbamoyl)benzenesulfonimidamide]
IC50 [1]: 0.2 to 1 µM
IC50 [2]: 0.209 µM

SMILES: CC(C)c1cc(C#N)c(F)c(C(C)C)c1NC(=O)N=S(=O)(NC#N)c1cnc(C(C)(C)O)s1 (single isomer, unassigned) [Example 20, (S) or (R)-N-cyano-N′-((4-cyano-3-fluoro-2,6-diisopropylphenyl)carbamoyl)-2-(2-hydroxypropan-2-yl)thiazole-5-sulfonimidamide]
IC50 [1]: 1 to 5 µM
IC50 [2]: 2.75 µM

SMILES: CC(C)c1cc(C#N)c(F)c(C(C)C)c1NC(=O)N=S(=O)(NC#N)c1cnc(C(C)(C)O)s1 (single isomer, unassigned) [Example 21, (R) or (S)-N-cyano-N′-((4-cyano-3-fluoro-2,6-diisopropylphenyl)carbamoyl)-2-(2-hydroxypropan-2-yl)thiazole-5-sulfonimidamide]
IC50 [1]: 0.04 to 0.2 µM
IC50 [2]: 0.0508 µM

SMILES: CC(C)c1cc(C#N)cc(C(C)C)c1NC(=O)N=S(=O)(NC#N)c1sc(C(C)(C)O)nc1CO (single isomer, unassigned) [Example 22, (R) or (S)-N-cyano-N′-((4-cyano-2,6-diisopropylphenyl)carbamoyl)-4-(hydroxymethyl)-2-(2-hydroxypropan-2-yl)thiazole-5-sulfonimidamide]
IC50 [3]: 0.04 to 0.2 µM
IC50 [4]: 0.0792 µM
